Values after ≈ are worked out from the molar mass of the structure shown.
Columns and labels:
Type in all cases: functional
[1] = system: Staphylococcus aureus; assay: Antimicrobial activity against methicillin-susceptible Staphylococcus aureus 326/08 after 18 hrs by disc-diffusion method; conditions: 326/08, 18 h
[2] = system: Staphylococcus aureus; assay: Antimicrobial activity against methicillin-susceptible Staphylococcus aureus 320/08 after 18 hrs by disc-diffusion method; conditions: 320/08, 18 h
[3] = system: Staphylococcus aureus; assay: Antimicrobial activity against methicillin-resistant Staphylococcus aureus 331/08 after 18 hrs by disc-diffusion method; conditions: 331/08, 18 h
[4] = system: Staphylococcus aureus; assay: Antimicrobial activity against methicillin-susceptible Staphylococcus aureus 338/08 after 18 hrs by disc-diffusion method; conditions: 338/08, 18 h
[5] = system: Staphylococcus aureus; assay: Antimicrobial activity against methicillin-resistant Staphylococcus aureus 329/08 after 18 hrs by disc-diffusion method; conditions: 329/08, 18 h
[6] = system: Staphylococcus epidermidis; assay: Antimicrobial activity against methicillin-resistant Staphylococcus epidermidis 289/08 after 18 hrs by disc-diffusion method; conditions: 289/08, 18 h
[7] = system: Staphylococcus aureus; assay: Antimicrobial activity against methicillin-resistant Staphylococcus aureus 335/08 after 18 hrs by disc-diffusion method; conditions: 335/08, 18 h
[8] = system: Staphylococcus aureus; assay: Antimicrobial activity against methicillin-resistant Staphylococcus aureus 330/08 after 18 hrs by disc-diffusion method; conditions: 330/08, 18 h
[9] = system: Staphylococcus aureus; assay: Antimicrobial activity against methicillin-susceptible Staphylococcus aureus 319/08 after 18 hrs by disc-diffusion method; conditions: 319/08, 18 h
[10] = system: Staphylococcus epidermidis; assay: Antimicrobial activity against methicillin-resistant Staphylococcus epidermidis 290/08 after 18 hrs by disc-diffusion method; conditions: 290/08, 18 h
[11] = system: Staphylococcus epidermidis; assay: Antimicrobial activity against methicillin-resistant Staphylococcus epidermidis 293/08 after 18 hrs by disc-diffusion method; conditions: 293/08, 18 h
[12] = system: Staphylococcus epidermidis; assay: Antimicrobial activity against methicillin-resistant Staphylococcus epidermidis 316/08 after 18 hrs by disc-diffusion method; conditions: 316/08, 18 h
[13] = system: Staphylococcus aureus; assay: Antimicrobial activity against methicillin-resistant Staphylococcus aureus 307/08 after 18 hrs by disc-diffusion method; conditions: 307/08, 18 h
[14] = system: Staphylococcus aureus; assay: Antimicrobial activity against methicillin-susceptible Staphylococcus aureus 324/08 after 18 hrs by disc-diffusion method; conditions: 324/08, 18 h
[15] = system: Staphylococcus epidermidis; assay: Antimicrobial activity against methicillin-resistant Staphylococcus epidermidis 315/08 after 18 hrs by disc-diffusion method; conditions: 315/08, 18 h
[16] = system: Staphylococcus epidermidis; assay: Antimicrobial activity against methicillin-resistant Staphylococcus epidermidis 311/08 after 18 hrs by disc-diffusion method; conditions: 311/08, 18 h
[17] = system: Staphylococcus aureus; assay: Antimicrobial activity against methicillin-resistant Staphylococcus aureus 332/08 after 18 hrs by disc-diffusion method; conditions: 332/08, 18 h
[18] = system: Staphylococcus aureus; assay: Antimicrobial activity against methicillin-susceptible Staphylococcus aureus 322/08 after 18 hrs by disc-diffusion method; conditions: 322/08, 18 h
[19] = system: Staphylococcus aureus; assay: Antimicrobial activity against methicillin-susceptible Staphylococcus aureus 328/08 after 18 hrs by disc-diffusion method; conditions: 328/08, 18 h
[20] = system: Staphylococcus aureus; assay: Antimicrobial activity against methicillin-susceptible Staphylococcus aureus 321/08 after 18 hrs by disc-diffusion method; conditions: 321/08, 18 h
[21] = system: Staphylococcus aureus; assay: Antimicrobial activity against methicillin-susceptible Staphylococcus aureus 327/08 after 18 hrs by disc-diffusion method; conditions: 327/08, 18 h
[22] = system: Staphylococcus epidermidis; assay: Antimicrobial activity against methicillin-resistant Staphylococcus epidermidis 292/08 after 18 hrs by disc-diffusion method; conditions: 292/08, 18 h
[23] = system: Staphylococcus aureus; assay: Antimicrobial activity against methicillin-resistant Staphylococcus aureus 333/08 after 18 hrs by disc-diffusion method; conditions: 333/08, 18 h
[24] = system: Staphylococcus aureus; assay: Antimicrobial activity against methicillin-susceptible Staphylococcus aureus 339/08 after 18 hrs by disc-diffusion method; conditions: 339/08, 18 h
[25] = system: Staphylococcus epidermidis; assay: Antimicrobial activity against methicillin-resistant Staphylococcus epidermidis 318/08 after 18 hrs by disc-diffusion method; conditions: 318/08, 18 h
[26] = system: Staphylococcus aureus; assay: Antimicrobial activity against methicillin-resistant Staphylococcus aureus 308/08 after 18 hrs by disc-diffusion method; conditions: 308/08, 18 h
[27] = system: Staphylococcus epidermidis; assay: Antimicrobial activity against methicillin-resistant Staphylococcus epidermidis 291/08 after 18 hrs by disc-diffusion method; conditions: 291/08, 18 h
[28] = system: Staphylococcus aureus; assay: Antimicrobial activity against methicillin-resistant Staphylococcus aureus 309/08 after 18 hrs by disc-diffusion method; conditions: 309/08, 18 h
[29] = system: Staphylococcus aureus; assay: Antimicrobial activity against methicillin-resistant Staphylococcus aureus 334/08 after 18 hrs by disc-diffusion method; conditions: 334/08, 18 h
[30] = system: Staphylococcus epidermidis; assay: Antimicrobial activity against methicillin-resistant Staphylococcus epidermidis 317/08 after 18 hrs by disc-diffusion method; conditions: 317/08, 18 h

Structure (SMILES) | MIC [1] [µM] | MIC [2] [µM] | MIC [3] [µM] | MIC [4] [µM] | MIC [5] [µM] | MIC [6] [µM] | MIC [7] [µM] | MIC [8] [µM] | MIC [9] [µM] | MIC [10] [µM] | MIC [11] [µM] | MIC [12] [µM] | MIC [13] [µM] | MIC [14] [µM] | MIC [15] [µM] | MIC [16] [µM] | MIC [17] [µM] | MIC [18] [µM] | MIC [19] [µM] | MIC [20] [µM] | also measured
CC[C@@]1([C@H]2O[C@@H]([C@H]3O[C@@](O)(CO)[C@H](C)C[C@@H]3C)C[C@@H]2C)CC[C@@H]([C@]2(C)CC[C@]3(C[C@H](O)[C@@H](C)[C@@H]([C@@H](C)[C@@H](OC)[C@H](C)C(=O)Nc4ccccc4)O3)O2)O1 | 8.37 (≈ 6.24 µg/mL) | 16.8 (≈ 12.5 µg/mL) | 8.37 (≈ 6.24 µg/mL) | 8.37 (≈ 6.24 µg/mL) | 8.37 (≈ 6.24 µg/mL) | 8.37 (≈ 6.24 µg/mL) | 8.37 (≈ 6.24 µg/mL) | 8.37 (≈ 6.24 µg/mL) | 8.37 (≈ 6.24 µg/mL) | 16.8 (≈ 12.5 µg/mL) | 8.37 (≈ 6.24 µg/mL) | 8.37 (≈ 6.24 µg/mL) | 8.37 (≈ 6.24 µg/mL) | 8.37 (≈ 6.24 µg/mL) | 8.37 (≈ 6.24 µg/mL) | 8.37 (≈ 6.24 µg/mL) | 8.37 (≈ 6.24 µg/mL) | 16.8 (≈ 12.5 µg/mL) | 33.5 (≈ 25 µg/mL) | 16.8 (≈ 12.5 µg/mL) | MIC [21]: 8.37 µM (≈ 6.24 µg/mL); MIC [22]: 16.8 µM (≈ 12.5 µg/mL); MIC [23]: 8.37 µM (≈ 6.24 µg/mL); MIC [24]: 33.5 µM (≈ 25 µg/mL); MIC [25]: 33.5 µM (≈ 25 µg/mL); MIC [26]: 8.37 µM (≈ 6.24 µg/mL); MIC [27]: 8.37 µM (≈ 6.24 µg/mL); MIC [28]: 8.37 µM (≈ 6.24 µg/mL); MIC [29]: 8.37 µM (≈ 6.24 µg/mL); MIC [30]: 8.37 µM (≈ 6.24 µg/mL)
CC[C@@]1([C@@H]2O[C@@H]([C@H]3O[C@@](O)(CO)[C@H](C)C[C@@H]3C)C[C@@H]2C)CC[C@H]([C@]2(C)CC[C@]3(C[C@H](O)[C@@H](C)[C@@H]([C@@H](C)[C@@H](OC)[C@H](C)C(=O)O)O3)O2)O1 [MONENSIN] | 2.98 (≈ 2 µg/mL) | 2.98 (≈ 2 µg/mL) | 1.49 (≈ 1 µg/mL) | 2.98 (≈ 2 µg/mL) | 2.98 (≈ 2 µg/mL) | 2.98 (≈ 2 µg/mL) | 1.49 (≈ 1 µg/mL) | 1.49 (≈ 1 µg/mL) | 2.98 (≈ 2 µg/mL) | 2.98 (≈ 2 µg/mL) | 1.49 (≈ 1 µg/mL) | 1.49 (≈ 1 µg/mL) | 2.98 (≈ 2 µg/mL) | 1.49 (≈ 1 µg/mL) | 1.49 (≈ 1 µg/mL) | 1.49 (≈ 1 µg/mL) | 1.49 (≈ 1 µg/mL) | 2.98 (≈ 2 µg/mL) | 2.98 (≈ 2 µg/mL) | 2.98 (≈ 2 µg/mL) | MIC [21]: 2.98 µM (≈ 2 µg/mL); MIC [22]: 2.98 µM (≈ 2 µg/mL); MIC [23]: 1.49 µM (≈ 1 µg/mL); MIC [24]: 5.96 µM (≈ 4 µg/mL); MIC [25]: 5.96 µM (≈ 4 µg/mL); MIC [26]: 2.98 µM (≈ 2 µg/mL); MIC [27]: 2.98 µM (≈ 2 µg/mL); MIC [28]: 2.98 µM (≈ 2 µg/mL); MIC [29]: 1.49 µM (≈ 1 µg/mL); MIC [30]: 1.49 µM (≈ 1 µg/mL)
